# What was measured:
# OVA-challenged mice = experiment: OVA-induced mouse asthma model; assay type: in vivo, Balb/C mice
# Procedure: Seven-week-old female Balb/C mice were sensitized by intraperitoneal injection (IP, 200 μL/mouse) of 100 μg OVA complexed with aluminum potassium sulfate on days 0, 7, and 14. On days 26, 27, and 28, mice were challenged with 5% aerosolized OVA in 48 mL sterile phosphate-buffered saline (PBS). The control group received sterile PBS with aluminum potassium sulfate via the IP route on days 0, 7, 14, and 48 mL of aerosolized sterile PBS on days 26, 27, and 28. Mice in the ATPB group were orally administered 10 mg/kg bid ATPB on days […], 27, 28, and 29.
# (§1) Rats and mice were sacrificed, and BALF was obtained by cannulating the trachea and lavage three times with 2 mL DPBS. BALF cells were centrifuged at 1000×g for 10 min at 4° C. The supernatants were collected and stored at −80° C. to measure inflammatory factors. The pelleted BALF cells were resuspended in 1 mL PBS and quantified using a hematology analyzer (Mindray Medical International Ltd., Shenzhen, China).
# [1] = tested on: smoking-induced COPD rats; experiment: Rat model of COPD by smoke exposure and intratracheal LPS; assay type: in vivo; settings: for IL-6 gene expression in the lungs (RT-PCR) / MCP-1 gene expression in the lungs (RT-PCR) / TNF-α gene expression in the lungs (RT-PCR): FIG. 7, P<0.01 or P<0.05
# Procedure: As described previously, the rat model of COPD was established by smoke exposure and intratracheal instillation of lipopolysaccharide (LPS). Experimental rats, including the COPD and drug-treated groups (10 mg/kg ATPB), underwent whole-body exposure to tobacco smoke from 10 cigarettes in a tobacco smoke chamber (90×40×30 cm, made of Plexiglas) twice a day with 2-hour smoke-free intervals, every day for 12 weeks.
# Animals from the two smoke-exposed groups were administered 180 μg/180 μL of LPS solution intratracheally on two occasions, on the first and 14th days of tobacco smoke exposure. Additionally, rats in the ATPB group were orally administered ATPB (10 mg/kg ATPB). All rats were sacrificed on the 91st day.
# as §1
# Total RNA from the lung tissue was extracted using TRIzol reagent (Invitrogen) according to the manufacturer's instructions. cDNA was synthesized using a cDNA Synthesis Kit (Life Technologies). SYBR Green Master Mix (Thermo Fisher) was used for PCR amplification on a StepOnePlus Real-Time PCR System (Applied Biosystems, Foster City, Calif., USA).
# The lungs of the rats were removed at week 12 and fixed in 10% neutral buffered formalin for histopathological analysis. Formalin-fixed tissues were embedded in paraffin, sectioned at […], and stained with hematoxylin and eosin (HE) and Alcian blue-periodic acid-Schiff (AB-PAS) to reveal histopathological lesions.
# [2] = tested on: PPE-induced COPD model mice; experiment: Porcine pancreatic elastase (PPE)-induced emphysema model, post-treatment; assay type: in vivo, C57BL/6J mice; settings: started 3 days after PPE, sacrifice day 21
# Procedure: Porcine Pancreatic Elastase (PPE)-induced emphysema model was used to measure the post-treatment effects of ATPB in COPD model mice. C57BL/6J mice were intratracheally injected with PPE (0.8 U per mouse) in PBS via a micropipette. The mice were randomly divided into […]: (A) emphysema group, which was exposed to intratracheal PPE; (B) emphysema+ATPB (5 mg/kg ATPB, PO, bid); (C) emphysema +ATPB (10 mg/kg ATPB, PO, bid); (D) emphysema +roflumilast (10 mg/kg, PO, qd); and (E) emphysema +prednisolone (1 mg/kg, PO, qd). All treatments were started 3 days after the PPE injection. Mice were sacrificed 21 days after the PPE injection.
# as §1
# [3] = ATPB 10 mg/kg bid oral, vs OVA-challenged mice, FIG. 2
# [4] = ATPB 10 mg/kg bid oral, vs vehicle group, FIG. 3
# [5] = ATPB 10 mg/kg, vs OVA-challenged mice, FIG. 4
# [6] = ATPB 10 mg/kg, vs COPD rats, FIG. 6
smiles,measurement,setting,value
"CC(=O)Oc1ccc(NCCc2ccc(C(F)(F)F)cc2)cc1C(=O)O [ATPB, 2-acetoxy-5-[2-(4-trifluoromethyl-phenyl)-ethylamino]-benzoic acid]",IL-4 production in BALF (ELISA),OVA-challenged mice; [3],significantly downregulated
same,IL-5 production in BALF (ELISA),OVA-challenged mice; [3],significantly downregulated
same,production of IgE in the serum (ELISA),"OVA-challenged mice; ATPB 10 mg/kg bid oral, vs OVA-challenged mice, serum 24 h after last OVA challenge",significantly reduced
same,EO (eosinophil) cell count in BALF,OVA-challenged mice; [4],markedly reduced
same,LY (lymphocyte) cell count in BALF,OVA-challenged mice; [4],markedly reduced
same,MO (monocyte) cell count in BALF,OVA-challenged mice; [4],markedly reduced
same,WBC cell count in BALF,OVA-challenged mice; [4],markedly reduced
same,cell infiltration into peribranchial lung lesions (H&E staining),OVA-challenged mice; [5],notably downregulated
same,mucus hypersecretion in the bronchial airways (PAS staining),OVA-challenged mice; [5],attenuated
same,OVA-induced inflammatory cell counts in BALF,"OVA-challenged mice; after last OVA challenge, FIG. 3 legend",significantly reduced
same,OVA-induced eotaxin production,OVA-challenged mice; mouse asthma model,attenuated
same,OVA-specific IgE levels in serum (ELISA),"OVA-challenged mice; serum 24 h after last OVA aerosol challenge, FIG. 1",significantly lowered
same,number of WBCs in BALF,"[1]; ATPB 10 mg/kg oral, LPS and chronic smoking, 12 weeks, vs vehicle group, FIG. 5",markedly reduced
same,alveolar sacs and alveolar spaces enlargement (H&E lung histopathology),"[1]; ATPB 10 mg/kg oral, vs COPD group, FIG. 6",relieved
same,goblet cell proliferation (PAS+ cells),[1]; [6],decreased
same,mucous secretion (PAS staining),[1]; [6],reduced levels
same,IL-6 gene expression in the lungs (RT-PCR),[1]; vs COPD group,decreased
same,MCP-1 gene expression in the lungs (RT-PCR),[1]; vs COPD group,decreased
same,TNF-α gene expression in the lungs (RT-PCR),[1]; vs COPD group,decreased
same,number of WBC in BALF,"[2]; 10 mg/kg ATPB PO bid, vs vehicle, FIG. 8, P<0.05",significantly reduced
"C[C@]12C=CC(=O)C=C1CC[C@@H]1[C@@H]2[C@@H](O)C[C@@]2(C)[C@H]1CC[C@]2(O)C(=O)CO [prednisolone, reference compound]",IL-6 gene expression in the lungs (RT-PCR),[1]; vs COPD group,decreased
same,MCP-1 gene expression in the lungs (RT-PCR),[1]; vs COPD group,decreased
same,TNF-α gene expression in the lungs (RT-PCR),[1]; vs COPD group,decreased
same,number of WBC in BALF,"[2]; prednisolone 1 mg/kg PO qd, FIG. 8",Neither roflumilast nor prednisolone reduced the WBC count
O=C(Nc1c(Cl)cncc1Cl)c1ccc(OC(F)F)c(OCC2CC2)c1 [roflumilast],number of WBC in BALF,"[2]; roflumilast 10 mg/kg PO qd, FIG. 8",Neither roflumilast nor prednisolone reduced the WBC count
